“And” between values parts separate entries of the source, which are not always exact repeats. Equal entries are not always repeated.
Details: Crystal, Torsion effusion method

[Br-].[Br-].[Br-].[Lu+3] [lutetium tribromide]
Details | vapor or sublimation pressure
903 K | 6.3e-05 kPa
908 K | 7.9e-05 kPa
909 K | 9.3e-05 kPa
910 K | 6.3e-05 kPa and 9.3e-05 kPa
914 K | 9.3e-05 kPa
917 K | 9.3e-05 kPa
918 K | 0.000141 kPa and 0.000126 kPa
919 K | 0.000126 kPa
920 K | 0.00011 kPa
921 K | 9.3e-05 kPa and 0.00011 kPa
924 K | 0.000141 kPa
926 K | 0.000126 kPa and 0.000191 kPa
927 K | 0.000191 kPa
929 K | 0.000204 kPa
930 K | 0.000158 kPa and 0.000126 kPa
931 K | 0.000158 kPa
935 K | 0.000191 kPa
936 K | 0.000234 kPa
937 K | 0.000282 kPa
938 K | 0.000251 kPa and 0.000219 kPa and 0.000282 kPa
939 K | 0.000282 kPa
940 K | 0.000191 kPa
946 K | 0.000316 kPa
947 K | 0.00038 kPa
948 K | 0.00038 kPa [middle of 4 runs]
950 K | 0.000407 kPa and 0.000282 kPa
956 K | 0.000427 kPa and 0.000437 kPa and 0.000501 kPa
957 K | 0.000562 kPa
958 K | 0.00049 kPa and 0.000468 kPa
960 K | 0.000603 kPa and 0.000427 kPa
965 K | 0.000676 kPa
966 K | 0.000617 kPa and 0.000794 kPa and 0.000724 kPa
967 K | 0.000661 kPa and 0.000794 kPa
968 K | 0.000661 kPa
969 K | 0.000794 kPa and 0.000617 kPa
973 K | 0.000912 kPa
975 K | 0.000813 kPa
976 K | 0.001096 kPa and 0.001047 kPa
977 K | 0.001072 kPa
978 K | 0.000912 kPa and 0.000933 kPa
979 K | 0.001096 kPa and 0.000912 kPa
981 K | 0.001175 kPa
984 K | 0.001445 kPa
986 K | 0.001202 kPa and 0.001413 kPa and 0.001445 kPa
987 K | 0.001318 kPa
988 K | 0.001288 kPa
989 K | 0.001514 kPa and 0.00123 kPa and 0.001585 kPa
995 K | 0.00195 kPa and 0.001778 kPa
996 K | 0.001585 kPa and 0.00195 kPa
997 K | 0.00195 kPa and 0.001778 kPa
998 K | 0.001778 kPa and 0.001622 kPa
999 K | 0.002089 kPa
1004 K | 0.00257 kPa and 0.002399 kPa
1006 K | 0.002512 kPa and 0.002089 kPa and 0.00257 kPa
1007 K | 0.002188 kPa and 0.002399 kPa
1008 K | 0.002399 kPa
1009 K | 0.002818 kPa
1013 K | 0.003311 kPa and 0.00309 kPa
1016 K | 0.003162 kPa
1017 K | 0.002951 kPa and 0.003388 kPa
1018 K | 0.003236 kPa and 0.00302 kPa and 0.003548 kPa
1023 K | 0.004074 kPa
1026 K | 0.004074 kPa
1027 K | 0.003981 kPa and 0.003802 kPa and 0.005012 kPa
1028 K | 0.00389 kPa
1038 K | 0.007244 kPa

[Cl][Lu]([Cl])[Cl] [lutetium trichloride]
Details | vapor or sublimation pressure
942 K | 6.3e-05 kPa
945 K | 7.9e-05 kPa
946 K | 7.9e-05 kPa
953 K | 7.9e-05 kPa
955 K | 0.000126 kPa
958 K | 0.00011 kPa
959 K | 0.000126 kPa
963 K | 0.000141 kPa
968 K | 0.000158 kPa
969 K | 0.000191 kPa
970 K | 0.000158 kPa
976 K | 0.000219 kPa
978 K | 0.000251 kPa
981 K | 0.000251 kPa
982 K | 0.000316 kPa
984 K | 0.000347 kPa
991 K | 0.00038 kPa and 0.000407 kPa
992 K | 0.00038 kPa
998 K | 0.000468 kPa and 0.00055 kPa
1001 K | 0.000603 kPa
1002 K | 0.000562 kPa
1004 K | 0.000617 kPa and 0.000575 kPa
1005 K | 0.000631 kPa
1012 K | 0.000794 kPa
1013 K | 0.000912 kPa
1016 K | 0.000933 kPa
1017 K | 0.001 kPa and 0.000912 kPa
1018 K | 0.000977 kPa
1024 K | 0.00123 kPa
1029 K | 0.001445 kPa
1030 K | 0.001445 kPa
1031 K | 0.001622 kPa
1032 K | 0.001622 kPa
1033 K | 0.00166 kPa and 0.001778 kPa
1042 K | 0.002239 kPa and 0.002188 kPa and 0.002138 kPa
1046 K | 0.00263 kPa
1047 K | 0.002692 kPa
1048 K | 0.002818 kPa
1050 K | 0.002951 kPa
1051 K | 0.002951 kPa
1053 K | 0.003162 kPa
1058 K | 0.003631 kPa
1059 K | 0.003548 kPa
1060 K | 0.003715 kPa and 0.003981 kPa
1062 K | 0.00389 kPa
1066 K | 0.004467 kPa
1071 K | 0.00537 kPa and 0.004898 kPa
1075 K | 0.005495 kPa and 0.00537 kPa

Reference: the NIST ThermoML archive (doi:10.1021/je049579x)
